Holding throughout (type): physicochemical
Series [1] is described as follows: Dynamic vapor sorption (DVS), SPS11-10µ, one cycle at 25 °C. The settings on record: DVS isotherm at 25 °C. The protocol: (§1) Example 7: Dynamic vapor sorption (DVS) of (R)-3-[6-amino-pyridin-3-yl]-2-(1-cyclohexyl-1 H-imidazol-4-yl)-propionic acid sodium salt monohydrate: Moisture sorption/desorption isotherms were recorded on a SPS11-10µ from Projekt Messtechnik (Ulm, Germany). One cycle was run at 25 °C, in which the sample was first stepwise decreased to 0% RH and then the relative humidity was stepwise increased from 0 to 95% and the weight of the sample was measured. Typical total measurement times for both cycles were about 20 to 30 hours. The measured data for the (R)-3-[6-amino-pyridin-3-yl]-2-(1-cyclohexyl-1 H-imidazol-4-yl)-propionic acid sodium salt monohydrate as prepared in Examples 2 or 3 are shown in the following table: DVS Isotherm at 25 °C:
Example 12: DVS, Comparison Experiment: (R)-3-[6-amino-pyridin-3-yl]-2-(1-cyclohexyl-1 H-imidazol-4-yl)-propionic acid as prepared in Example 1 was used for the measurement. The measurement was performed as disclosed in Example 7 with (R)-3-[6-amino-pyridin-3-yl]-2-(1-cyclohexyl-1 H-imidazol-4-yl)-propionic acid (free acid, amorphous) and the received data are shown in the following table: DVS Isotherm at 25 °C
as §1, with “(DVS):” for “(DVS) of (R)-3-[6-amino-pyridin-3-yl]-2-(1-cyclohexyl-1 H-imidazol-4-yl)-propionic acid sodium salt monohydrate:”, “Room humidity (RH)” for “RH”, “dihydrate” for “monohydrate”, “Example” for “Examples 2 or”, “isotherm” for “Isotherm”, “25°C:” for “25 °C:”
Example 9: DVS, Comparison Experiment: (R)-3-[6-amino-pyridin-3-yl]-2-(1-cyclohexyl-1 H-imidazol-4-yl)-propionic acid as prepared in Example 1 was used for the measurement. The measurement was performed as disclosed in Example 7 with (R)-3-[6-amino-pyridin-3-yl]-2-(1-cyclohexyl-1 H-imidazol-4-yl)-propionic acid (free acid, amorphous) and the received data are shown in the following table: DVS Isotherm at 25 °C

Series [2] is described as follows: Dynamic vapor sorption (DVS), DVS-1 instrument, two cycles at 25 °C. The settings on record: for weight increase in the sorption step: 25 °C.
Series [3] in a line: Determination of solubility in a mixture of acetone and water (4:1, by volume). The settings on record: for Solubility [g in 100 g of solvent]: acetone and water (4:1, by volume); for solubility compared with polymorph 1: result in words. The protocol:
Determination of solubility: For the determination of the solubility in a mixture of acetone and water (4:1, by volume), samples of 0.5 mg to 50 mg of the test substances were suspended in a defined amount of the solvent (800 mg to 1200 mg) in screw cap vials with a magnetic stirring bar, which were placed in a temperature-controlled multiple stirring device equipped for transmission measurement (Avantium Crystal 16). With stirring at 700 rpm, the vials were cooled from room temperature to 0 °C and then heated to 60 °C with a heating rate of 3 °C/h, kept at 60 °C for 2 h and cooled again to 0 °C with a cooling rate of 3 °C/h. By means of transmission measurement it was determined whether the sample was dissolved (100 % transmission), or crystals were present. For polymorph 1 ({drug5b}), polymorph 2 ({drug5c}), hydrate 1 ({drug5e}) and hydrate 2 ({drug5f}) of compound (V) the following solubilities in a mixture of acetone and water (4:1, by volume) were determined.

For the compound `Nc1ccc(C[C@@H](C(=O)[O-])c2cn(C3CCCCC3)cn2)cn1.O.[Na+]` [(R)-3-[6-amino-pyridin-3-yl]-2-(1-cyclohexyl-1 H-imidazol-4-yl)-propionic acid sodium salt monohydrate], the “Change In Mass (%) Desorption” value in series [1] (Target RH 0.2 %) is given as -4.4%; in series [1] (Target RH 10.0 %), -0.6%; in series [1] (Target RH 20.0 %), -0.1%; in series [1] (Target RH 30.1 %), 0.1%. Moreover, the “Change In Mass (%) Sorption” value in series [1] (Target RH 10.0 %) was -3.7%; in series [1] (Target RH 20.0 %) it was -0.2%; in series [1] (Target RH 30.0 %), 0.2%; in series [1] (Target RH 40.0 %), 0.6%; in series [1] (Target RH 50.0 %) it was 0.9%; in series [1] (Target RH 60.0 %) it was 1.5%. The “Change In Mass (%) Sorption” value is 4.0% in series [1] (Target RH 70.0 %); 8.2% in series [1] (Target RH 75.0 %); 11.9% in series [1] (Target RH 80.1 %); 17.7% in series [1] (Target RH 85.1 %); 38.2% in series [1] (Target RH 90.0 %); 67.4% in series [1] (Target RH 94.9 %).
With `CNc1nccc(-c2cc3cc(C(=O)N[C@@H](CN(c4ccccc4)c4ncccn4)C(N)=O)ccc3[nH]2)n1.O.O` [Hydrate 1, 2-(2-methylamino-pyrimidin-4-yl)-1 H-indole-5-carboxylic acid [(S)-1-carbamoyl-2-(phenyl-pyrimidin-2-yl-amino)-ethyl]-amide dihydrate], the hygroscopicity result in series [2] (result in words) is recorded as “low hygroscopicity”. The results for the “Solubility [g in 100 g of solvent]” value in series [3] (Temperature 38.6 °C), in series [3] (Temperature 49.7 °C) and in series [3] (Temperature 57.4 °C) were 2.11 g in 100 g of solvent, 3.39 g in 100 g of solvent and 5.04 g in 100 g of solvent, respectively. For the same compound, the “solubility compared with polymorph 1” value in series [3] is given as “higher solubility than polymorph 1”.
In the case of `CNc1nccc(-c2cc3cc(C(=O)N[C@@H](CN(c4ccccc4)c4ncccn4)C(N)=O)ccc3[nH]2)n1.O.O.O.O.O.O` [Hydrate 2, 2-(2-methylamino-pyrimidin-4-yl)-1 H-indole-5-carboxylic acid [(S)-1-carbamoyl-2-(phenyl-pyrimidin-2-yl-amino)-ethyl]-amide hexahydrate], the entries for the “Solubility [g in 100 g of solvent]” value in series [3] (Temperature 36.8 °C), in series [3] (Temperature 46.1 °C) and in series [3] (Temperature 55.9 °C) were 0.50 g in 100 g of solvent, 1.02 g in 100 g of solvent and 2.61 g in 100 g of solvent, respectively. Moreover, the “solubility compared with polymorph 1” value in series [3] is “higher solubility than polymorph 1”.
`CNc1nccc(-c2cc3cc(C(=O)N[C@@H](CN(c4ccccc4)c4ncccn4)C(N)=O)ccc3[nH]2)n1` [Polymorph 2, 2-(2-methylamino-pyrimidin-4-yl)-1 H-indole-5-carboxylic acid [(S)-1-carbamoyl-2-(phenyl-pyrimidin-2-yl-amino)-ethyl]-amide]: the “weight increase in the sorption step” value in series [2] (Relative humidity 40 %, first cycle) was determined as 0.2%; in series [2] (Relative humidity 40 %, second cycle) it was 0.0%; in series [2] (Relative humidity 60 %, first cycle) it was 0.3%; in series [2] (Relative humidity 60 %, second cycle), 0.1%; in series [2] (Relative humidity 80 %, first cycle), 0.4%; in series [2] (Relative humidity 80 %, second cycle), 0.3%. For the same compound, the “weight increase in the sorption step” value in series [2] (Relative humidity 95 %, first cycle) came to 0.8%; in series [2] (Relative humidity 95 %, second cycle), 0.6%. In series [2] (at a high relative humidity of 80 %), the “water uptake (hygroscopicity)” value was “about 0.4%”. In addition, the “Solubility [g in 100 g of solvent]” value in series [3] (Temperature 46.0 °C) is 1.02 g in 100 g of solvent; in series [3] (Temperature 57.5 °C), 2.48 g in 100 g of solvent. Also, the “solubility compared with polymorph 1” value in series [3] is on record as “higher solubility than polymorph 1”.

The values above are taken from patent publication EP2805705B1, “Packaging with one or more administration units comprising a sodium salt of (R)-3-[6-amino-pyridin-3-yl]-2-(1-cyclohexyl-1 H-imidazol-4-yl)-propionic acid” (IP Gesellschaft für Management mbH, priority 2013, dated 2014).
